# Data reported in patent US20230200391A1, “ACTIVE COMPOUND COMBINATIONS AND FUNGICIDE COMPOSITIONS COMPRISING THOSE” (priority 2020, published 2023).
# Where “and” joins values, the source holds several entries; their conditions need not be identical. Identical values can stand only once.
# How the values were obtained:
# Assay type in all cases: cell-based
# Alternaria alternata = assay: in vitro-Test with Alternaria alternata
# Protocol: (§1) Wells of 96-well microtiter plates are filled with 30 μl of a preparation of test compound or compound combination in methanol+emulsifier alkylaryl-polyglycol-ether. Thereafter, the solvent is evaporated in a hood. At the next step, into each well 200 μl of liquid growth medium is given, that has been amended with an appropriate concentration of spores or mycelium suspension of the test fungus.
# (§2) With the aid of a photometer the extinction in all wells is measured at the wavelength of 600 nm.
# (§3) The microtiter plates are incubated for 3 to 7 days at 20° C. and 85% relative humidity. After the incubation inhibition of growth is determined photometrically. Efficacy is calculated in relation to the untreated control, 0% efficacy means fungal growth as high as in untreated control while 100% efficacy means no fungal growth is measured.
# Botrytis cinerea = assay: in vitro-Test with Botrytis cinerea
# Protocol: as §1, §2, §3
# Colletotrichum coccodes = assay: in vitro-Test with Colletotrichum coccodes
# Protocol: as §1, §2, §3
# Cordana musae = assay: in vitro-Test with Cordana musae
# Protocol: as §1, §2, §3
# Fusarium culmorum = assay: in vitro-Test with Fusarium culmorum
# Protocol: as §1, §2, §3
# Parastagonospora nodorum = assay: in vitro-Test with Parastagonospora nodorum
# Protocol: as §1, §2, §3
# Cercospora beticola = assay: in vitro-Test with Cercospora beticola
# Protocol: as §1, §2, §3
# Diaporthe citri = assay: in vitro-Test with Diaporthe citri
# Protocol: as §1, §2, §3
# [1] = test system: Ustilago segetum var. avenae; assay: in vitro-Test with Ustilago segetum var. avenae
# Protocol: as §1, §2, §3
compound,measurement,setting,value
"O=C(NC1CCC1c1ccc(Cl)cc1Cl)c1cccnc1C(F)(F)F (stereo in doubt) [(2.060), cyclobutrifluram]",efficacy %,Alternaria alternata; 0.04 ppm,80%
same,efficacy %,Alternaria alternata; 5 ppm,88%
same,efficacy %,Botrytis cinerea; 0.04 ppm,49%
same,efficacy %,Botrytis cinerea; 0.2 ppm,77%
same,efficacy %,Botrytis cinerea; 1 ppm,92%
same,efficacy %,Colletotrichum coccodes; 0.04 ppm,0%
same,efficacy %,Colletotrichum coccodes; 0.2 ppm,0%
same,efficacy %,Colletotrichum coccodes; 1 ppm,0%
same,efficacy %,Colletotrichum coccodes; 5 ppm,12%
same,efficacy %,Cordana musae; 0.04 ppm,0%
same,efficacy %,Cordana musae; 0.2 ppm,0%
same,efficacy %,Fusarium culmorum; 0.04 ppm,47%
same,efficacy %,Fusarium culmorum; 5 ppm,56%
same,efficacy %,Parastagonospora nodorum; 5 ppm,0%
same,efficacy %,Parastagonospora nodorum; single compound at 0.04 ppm,5%
same,efficacy %,Parastagonospora nodorum; single compound at 0.2 ppm,13%
same,efficacy %,Parastagonospora nodorum; single compound at 5 ppm,98%
"OC(Cc1ccccc1Cl)(Cn1nc[nH]c1=S)C1(Cl)CC1 (stereo not drawn) [(1.018), prothioconazole]",efficacy %,Alternaria alternata; 0.004 ppm,26%
same,efficacy %,Alternaria alternata; 0.02 ppm,13%
same,efficacy %,Alternaria alternata; 0.1 ppm,37%
same,efficacy %,Cercospora beticola; 0.1 ppm,100%
same,efficacy %,Cercospora beticola; 0.5 ppm,96%
same,efficacy %,Colletotrichum coccodes; 0.004 ppm,0%
same,efficacy %,Cordana musae; 0.004 ppm,3% and 0% and 2%
same,efficacy %,Cordana musae; 0.5 ppm,99%
same,efficacy %,Diaporthe citri; 0.004 ppm,14%
same,efficacy %,Diaporthe citri; 0.1 ppm,98%
same,efficacy %,Diaporthe citri; 0.5 ppm,99%
same,efficacy %,Fusarium culmorum; 0.004 ppm,3%
same,efficacy %,Fusarium culmorum; 0.02 ppm,0%
same,efficacy %,Parastagonospora nodorum; 0.02 ppm,83%
same,efficacy %,Parastagonospora nodorum; 0.1 ppm,97%
same,efficacy %,Parastagonospora nodorum; 0.5 ppm,97%
same,efficacy %,Parastagonospora nodorum; single compound at 0.004 ppm,2%
same,efficacy %,[1]; 0.004 ppm,45%
same,efficacy %,[1]; 0.1 ppm,99%
same,efficacy %,[1]; 0.5 ppm,99%
"O=C(NCCc1ncc(C(F)(F)F)cc1Cl)c1ccccc1C(F)(F)F [(2.005), fluopyram]",efficacy %,Alternaria alternata; 0.16 ppm,67%
same,efficacy %,Alternaria alternata; 20 ppm,89%
same,efficacy %,Botrytis cinerea; 0.16 ppm,48%
same,efficacy %,Botrytis cinerea; 0.8 ppm,77%
same,efficacy %,Botrytis cinerea; 20 ppm,97%
same,efficacy %,Cercospora beticola; 0.16 ppm,25%
same,efficacy %,Cercospora beticola; 0.8 ppm,0%
same,efficacy %,Cercospora beticola; 4 ppm,11%
same,efficacy %,Parastagonospora nodorum; 4 ppm,49%
same,efficacy %,Parastagonospora nodorum; 20 ppm,86%
"Cc1nn(C)c(F)c1C(=O)Nc1ccccc1C(C)CC(C)C (stereo not drawn) [(2.017), penflufen]",efficacy %,Alternaria alternata; 0.04 ppm,10%
same,efficacy %,Alternaria alternata; 1 ppm,65%
same,efficacy %,Parastagonospora nodorum; 0.2 ppm,0%
same,efficacy %,Parastagonospora nodorum; 5 ppm,42%
same,efficacy %,Parastagonospora nodorum; single compound at 0.04 ppm,0%
same,efficacy %,Parastagonospora nodorum; single compound at 0.2 ppm,4%
same,efficacy %,Parastagonospora nodorum; single compound at 1 ppm,17%
same,efficacy %,Parastagonospora nodorum; single compound at 5 ppm,48%
"CC(C)c1ccc(Cl)cc1CN(C(=O)c1c(C(F)F)nn(C)c1F)C1CC1 [(2.038), isoflucypram]",efficacy %,Alternaria alternata; 1 ppm,76%
same,efficacy %,Botrytis cinerea; 0.2 ppm,74%
same,efficacy %,Botrytis cinerea; 1 ppm,86%
same,efficacy %,Cercospora beticola; 0.04 ppm,0%
same,efficacy %,Fusarium culmorum; 0.04 ppm,0%
"CO/N=C(/C1=NOCCO1)c1ccccc1Oc1ncnc(Oc2ccccc2Cl)c1F [(3.012), fluoxastrobin]",efficacy %,Alternaria alternata; 0.4 ppm,87%
same,efficacy %,Colletotrichum coccodes; 2 ppm,85%
same,efficacy %,Cordana musae; 2 ppm,74%
same,efficacy %,Cordana musae; 10 ppm,81%
same,efficacy %,Fusarium culmorum; 0.4 ppm,26%
same,efficacy %,Fusarium culmorum; 2 ppm,34%
same,efficacy %,Fusarium culmorum; 10 ppm,47% and 54%
"CON=C(C(=O)OC)c1ccccc1CON=C(C)c1cccc(C(F)(F)F)c1 [(3.020), trifloxystrobin]",efficacy %,Alternaria alternata; 0.008 ppm,22%
same,efficacy %,Alternaria alternata; 0.04 ppm,62%
same,efficacy %,Botrytis cinerea; 0.008 ppm,5%
same,efficacy %,Botrytis cinerea; 0.04 ppm,17%
same,efficacy %,Botrytis cinerea; 0.2 ppm,13%
same,efficacy %,Colletotrichum coccodes; 0.008 ppm,7%
same,efficacy %,Fusarium culmorum; 0.008 ppm,0%
same,efficacy %,Fusarium culmorum; 0.04 ppm,19%
same,efficacy %,Parastagonospora nodorum; single compound at 0.008 ppm,32%
same,efficacy %,Parastagonospora nodorum; single compound at 0.04 ppm,73%
same,efficacy %,Parastagonospora nodorum; single compound at 1 ppm,97%
"Cc1cccc(-n2nnn(C)c2=O)c1COc1ccn(-c2ccc(Cl)cc2)n1 [(3.030), metyltetraprole]",efficacy %,Botrytis cinerea; 0.008 ppm,11%
same,efficacy %,Botrytis cinerea; 0.4 ppm,34%
same,efficacy %,Botrytis cinerea; 2 ppm,41%
same,efficacy %,Botrytis cinerea; 10 ppm,81%
same,efficacy %,Colletotrichum coccodes; 0.08 ppm,25%
same,efficacy %,Colletotrichum coccodes; 0.4 ppm,73%
same,efficacy %,Colletotrichum coccodes; 10 ppm,100%
same,efficacy %,Cordana musae; 0.08 ppm,44%
same,efficacy %,Cordana musae; 0.4 ppm,70%
same,efficacy %,Cordana musae; 2 ppm,78%
same,efficacy %,Diaporthe citri; 2 ppm,95%
same,efficacy %,Diaporthe citri; 10 ppm,99%
same,efficacy %,[1]; 10 ppm,34%
"COC(=O)C(O)(Cn1cncn1)c1ccc(Oc2ccc(Cl)cc2)cc1Cl (stereo not drawn) [(I-1), Methyl 2-[2-chloro-4-(4-chlorophenoxy)phenyl]-2-hydroxy-3-(1,2,4-triazol-1-yl)propanoate]",efficacy %,Botrytis cinerea; 0.02 ppm,3%
same,efficacy %,Botrytis cinerea; 0.2 ppm,0%
same,efficacy %,Botrytis cinerea; 0.5 ppm,27%
same,efficacy %,Cercospora beticola; 0.5 ppm,100%
same,efficacy %,Cercospora beticola; 2.5 ppm,100%
same,efficacy %,Colletotrichum coccodes; 0.1 ppm,0%
same,efficacy %,Colletotrichum coccodes; 0.5 ppm,32%
same,efficacy %,Cordana musae; 0.02 ppm,0%
same,efficacy %,Cordana musae; 0.1 ppm,5%
same,efficacy %,Cordana musae; 0.5 ppm,15%
same,efficacy %,Cordana musae; 2.5 ppm,99%
same,efficacy %,Diaporthe citri; 0.1 ppm,0%
same,efficacy %,Diaporthe citri; 0.5 ppm,96%
same,efficacy %,Fusarium culmorum; 0.02 ppm,14% and 10% and 4%
same,efficacy %,Fusarium culmorum; 0.5 ppm,0%
same,efficacy %,Parastagonospora nodorum; 0.1 ppm,87%
same,efficacy %,Parastagonospora nodorum; 0.5 ppm,98%
same,efficacy %,Parastagonospora nodorum; 2.5 ppm,96%
same,efficacy %,Parastagonospora nodorum; single compound at 0.02 ppm,0%
same,efficacy %,[1]; 0.02 ppm,9%
same,efficacy %,[1]; 0.5 ppm,96%
same,efficacy %,[1]; 2.5 ppm,98%
inpyrfluxam [(2.027)],efficacy %,Cordana musae; 1 ppm,3%
same,efficacy %,Diaporthe citri; 1 ppm,86% and 84%
mancozeb [(5.013)],efficacy %,Alternaria alternata; 0.16 ppm,0%
same,efficacy %,Alternaria alternata; 0.8 ppm,0% and 1%
same,efficacy %,Alternaria alternata; 20 ppm,74%
same,efficacy %,Botrytis cinerea; 0.16 ppm,4%
same,efficacy %,Botrytis cinerea; 0.8 ppm,6%
same,efficacy %,Botrytis cinerea; 4 ppm,6%
same,efficacy %,Cercospora beticola; 20 ppm,98% and 100%
same,efficacy %,Colletotrichum coccodes; 4 ppm,24%
same,efficacy %,Cordana musae; 0.16 ppm,0%
same,efficacy %,Cordana musae; 0.8 ppm,0%
same,efficacy %,Cordana musae; 4 ppm,12%
same,efficacy %,Diaporthe citri; 0.8 ppm,0%
same,efficacy %,Diaporthe citri; 20 ppm,96%
same,efficacy %,Fusarium culmorum; 0.16 ppm,0%
same,efficacy %,Fusarium culmorum; 0.8 ppm,0%
same,efficacy %,Fusarium culmorum; 4 ppm,0%
same,efficacy %,Parastagonospora nodorum; single compound at 0.16 ppm,0%
